# Measured values taken from PubChem BioAssay (NCI).
#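 Assay format: 96-well plates, 48-hour exposure. TGI: concentration producing complete growth inhibition.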
# Key:
# Test in all cases: NCI anticancer screen, dose series, 48 h
# 786-0 renal = tested on: 786-0 renal
# A498 renal = tested on: A498 renal
# A549 NSCLC = tested on: A549 NSCLC
# ACHN renal = tested on: ACHN renal
# CAKI-1 renal = tested on: CAKI-1 renal
# CCRF-CEM leukemia = tested on: CCRF-CEM leukemia
# COLO 205 colon = tested on: COLO 205 colon
# DLD-1 colon = tested on: DLD-1 colon
# DMS 114 small cell lung = tested on: DMS 114 small cell lung
# DMS 273 small cell lung = tested on: DMS 273 small cell lung
# EKVX NSCLC = tested on: EKVX NSCLC
# HCC-2998 colon = tested on: HCC-2998 colon
# HCT-116 colon = tested on: HCT-116 colon
# HCT-15 colon = tested on: HCT-15 colon
# HL-60(TB) leukemia = tested on: HL-60(TB) leukemia
# HOP-18 NSCLC = tested on: HOP-18 NSCLC
# HOP-62 NSCLC = tested on: HOP-62 NSCLC
# HOP-92 NSCLC = tested on: HOP-92 NSCLC
# HT29 colon = tested on: HT29 colon
# IGROV1 ovarian = tested on: IGROV1 ovarian
# K-562 leukemia = tested on: K-562 leukemia
# KM12 colon = tested on: KM12 colon
# KM20L2 colon = tested on: KM20L2 colon
# LOX IMVI melanoma = tested on: LOX IMVI melanoma
# LXFL 529 NSCLC = tested on: LXFL 529 NSCLC
# M14 melanoma = tested on: M14 melanoma
# M19-MEL melanoma = tested on: M19-MEL melanoma
# MALME-3M melanoma = tested on: MALME-3M melanoma
# MOLT-4 leukemia = tested on: MOLT-4 leukemia
# NCI-H226 lung = tested on: NCI-H226 lung
# NCI-H23 lung = tested on: NCI-H23 lung
# NCI-H460 lung = tested on: NCI-H460 lung
# NCI-H522 lung = tested on: NCI-H522 lung
# OVCAR-3 ovarian = tested on: OVCAR-3 ovarian
# OVCAR-4 ovarian = tested on: OVCAR-4 ovarian
# OVCAR-5 ovarian = tested on: OVCAR-5 ovarian
# OVCAR-8 ovarian = tested on: OVCAR-8 ovarian
# RPMI-8226 leukemia = tested on: RPMI-8226 leukemia
# RXF 393 renal = tested on: RXF 393 renal
# RXF-631 renal = tested on: RXF-631 renal
# SF-268 CNS = tested on: SF-268 CNS
# SF-295 CNS = tested on: SF-295 CNS
# SF-539 CNS = tested on: SF-539 CNS
# SK-MEL-2 melanoma = tested on: SK-MEL-2 melanoma
# SK-MEL-28 melanoma = tested on: SK-MEL-28 melanoma
# SK-MEL-5 melanoma = tested on: SK-MEL-5 melanoma
# SK-OV-3 ovarian = tested on: SK-OV-3 ovarian
# SN12C renal = tested on: SN12C renal
# SNB-19 CNS = tested on: SNB-19 CNS
# SNB-75 CNS = tested on: SNB-75 CNS
# SNB-78 CNS = tested on: SNB-78 CNS
# SR leukemia = tested on: SR leukemia
# SW-620 colon = tested on: SW-620 colon
# TK-10 renal = tested on: TK-10 renal
# U251 CNS = tested on: U251 CNS
# UACC-257 melanoma = tested on: UACC-257 melanoma
# UACC-62 melanoma = tested on: UACC-62 melanoma
# UO-31 renal = tested on: UO-31 renal
# XF 498 CNS = tested on: XF 498 CNS
smiles,measurement,setting,value
Oc1cc2cc(-c3ccccc3)[nH]c2c2ccccc12,TGI,786-0 renal,> 100 µM
same,TGI,A498 renal,> 100 µM
same,TGI,A549 NSCLC,> 100 µM
same,TGI,ACHN renal,> 88.3 µM
same,TGI,CAKI-1 renal,90.8 µM
same,TGI,CCRF-CEM leukemia,> 100 µM
same,TGI,COLO 205 colon,> 37.8 µM
same,TGI,DLD-1 colon,> 100 µM
same,TGI,DMS 114 small cell lung,27.7 µM
same,TGI,DMS 273 small cell lung,2.06 µM
same,TGI,EKVX NSCLC,> 100 µM
same,TGI,HCC-2998 colon,> 100 µM
same,TGI,HCT-116 colon,37.1 µM
same,TGI,HCT-15 colon,> 100 µM
same,TGI,HL-60(TB) leukemia,> 100 µM
same,TGI,HOP-18 NSCLC,> 96 µM
same,TGI,HOP-62 NSCLC,> 100 µM
same,TGI,HOP-92 NSCLC,> 95.6 µM
same,TGI,HT29 colon,> 100 µM
same,TGI,IGROV1 ovarian,> 100 µM
same,TGI,K-562 leukemia,> 88.8 µM
same,TGI,KM12 colon,> 100 µM
same,TGI,KM20L2 colon,> 100 µM
same,TGI,LOX IMVI melanoma,34.3 µM
same,TGI,LXFL 529 NSCLC,> 100 µM
same,TGI,M14 melanoma,61 µM
same,TGI,M19-MEL melanoma,28.9 µM
same,TGI,MALME-3M melanoma,41.6 µM
same,TGI,MOLT-4 leukemia,> 82.6 µM
same,TGI,NCI-H226 lung,> 100 µM
same,TGI,NCI-H23 lung,36.6 µM
same,TGI,NCI-H460 lung,72.1 µM
same,TGI,NCI-H522 lung,37.4 µM
same,TGI,OVCAR-3 ovarian,> 61.4 µM
same,TGI,OVCAR-4 ovarian,> 100 µM
same,TGI,OVCAR-5 ovarian,> 100 µM
same,TGI,OVCAR-8 ovarian,> 100 µM
same,TGI,RPMI-8226 leukemia,67.6 µM
same,TGI,RXF 393 renal,> 78.3 µM
same,TGI,RXF-631 renal,> 89.8 µM
same,TGI,SF-268 CNS,> 100 µM
same,TGI,SF-295 CNS,> 24.5 µM
same,TGI,SF-539 CNS,97.1 µM
same,TGI,SK-MEL-2 melanoma,43.5 µM
same,TGI,SK-MEL-28 melanoma,> 100 µM
same,TGI,SK-MEL-5 melanoma,27.2 µM
same,TGI,SK-OV-3 ovarian,> 100 µM
same,TGI,SN12C renal,> 92.9 µM
same,TGI,SNB-19 CNS,> 70.2 µM
same,TGI,SNB-75 CNS,> 100 µM
same,TGI,SNB-78 CNS,> 100 µM
same,TGI,SR leukemia,> 93.6 µM
same,TGI,SW-620 colon,> 100 µM
same,TGI,TK-10 renal,> 100 µM
same,TGI,U251 CNS,> 100 µM
same,TGI,UACC-257 melanoma,32.5 µM
same,TGI,UACC-62 melanoma,29.4 µM
same,TGI,UO-31 renal,> 92.6 µM
same,TGI,XF 498 CNS,25.9 µM
Cc1ccc(NC(=O)CCC(=O)C2CC(=O)CC/C2=N\NC(=O)c2cc3ccccc3cc2O)cc1C (stereo unspecified),TGI,786-0 renal,> 100 µM
same,TGI,A498 renal,> 100 µM
same,TGI,A549 NSCLC,> 100 µM
same,TGI,ACHN renal,> 100 µM
same,TGI,CAKI-1 renal,> 100 µM
same,TGI,CCRF-CEM leukemia,58.3 µM
same,TGI,COLO 205 colon,33.3 µM
same,TGI,DLD-1 colon,> 100 µM
same,TGI,DMS 114 small cell lung,51.6 µM
same,TGI,DMS 273 small cell lung,43.1 µM
same,TGI,EKVX NSCLC,99.6 µM
same,TGI,HCC-2998 colon,50.1 µM
same,TGI,HCT-116 colon,> 100 µM
same,TGI,HCT-15 colon,> 100 µM
same,TGI,HL-60(TB) leukemia,29.9 µM
same,TGI,HOP-18 NSCLC,> 100 µM
same,TGI,HOP-62 NSCLC,> 100 µM
same,TGI,HOP-92 NSCLC,> 100 µM
same,TGI,HT29 colon,> 100 µM
same,TGI,IGROV1 ovarian,66.9 µM
same,TGI,K-562 leukemia,> 100 µM
same,TGI,KM12 colon,> 100 µM
same,TGI,KM20L2 colon,87.9 µM
same,TGI,LXFL 529 NSCLC,> 100 µM
same,TGI,M14 melanoma,88.9 µM
same,TGI,M19-MEL melanoma,90.7 µM
same,TGI,MALME-3M melanoma,90.2 µM
same,TGI,MOLT-4 leukemia,99.6 µM
same,TGI,NCI-H226 lung,97.2 µM
same,TGI,NCI-H23 lung,38 µM
same,TGI,NCI-H460 lung,> 100 µM
same,TGI,NCI-H522 lung,39.5 µM
same,TGI,OVCAR-3 ovarian,45.6 µM
same,TGI,OVCAR-4 ovarian,51.4 µM
same,TGI,OVCAR-5 ovarian,56.8 µM
same,TGI,OVCAR-8 ovarian,> 100 µM
same,TGI,RPMI-8226 leukemia,> 100 µM
same,TGI,RXF-631 renal,> 100 µM
same,TGI,SF-268 CNS,> 100 µM
same,TGI,SF-295 CNS,> 100 µM
same,TGI,SF-539 CNS,87.3 µM
same,TGI,SK-MEL-2 melanoma,82.7 µM
same,TGI,SK-MEL-28 melanoma,> 100 µM
same,TGI,SK-MEL-5 melanoma,29.6 µM
same,TGI,SK-OV-3 ovarian,> 100 µM
same,TGI,SN12C renal,> 100 µM
same,TGI,SNB-19 CNS,> 100 µM
same,TGI,SNB-75 CNS,> 100 µM
same,TGI,SNB-78 CNS,> 100 µM
same,TGI,SR leukemia,97.4 µM
same,TGI,SW-620 colon,> 100 µM
same,TGI,TK-10 renal,> 100 µM
same,TGI,U251 CNS,> 100 µM
same,TGI,UACC-257 melanoma,61.7 µM
same,TGI,UACC-62 melanoma,33.9 µM
same,TGI,UO-31 renal,59.3 µM
same,TGI,XF 498 CNS,99 µM
